Assay [1] relates to thrombin generation (TG). Type of assay: biochemical, human. As to conditions: 2 μM hirugen, PRP with CTI and anti-FXI MoAb. On the procedure: TG in PRP or reconstituted PRP was evaluated as known to those skilled in the art. Native PRP was prepared from blood collected into final 12.9 mM trisodium citrate by centrifugation at 250 g for 10 min at 25° C. The platelet count was adjusted to 180×10^3/μl by dilution with homologous PPP obtained by centrifuging PRP for 10 min at 1,500 g. CTI was added at 30-50 μg/ml depending on calibrated potency as assessed by FXIIa inhibition. Reconstituted PRP was prepared with washed platelets prepared from normal PRP by adding ⅕th volume of acid citrate-dextrose (71 mM citric acid, 85 mM trisodium citrate, and 111 mM dextrose, pH 4.5) and 5 U/ml apyrase; following centrifugation at 1,500 g for 10 minutes at 25° C., the platelet pellet was resuspended into PPP lacking FVII (George King Bio-Medical) or FIX (Haematologic Technologies) to give a final platelet count of 180·103/μl PRP was mixed with varying concentrations of rTF and/or 20 pM FIXa in 96-well microtiter plates. The reaction was started by adding 18 mM CaCl2 with 360 μM of the thrombin substrate benzyloxycarbonyl-glycyl-glycyl-L-arginine coupled to the fluorogenic group 7-amido-4-methylcoumarin (Gly-Gly-Arg-AMC; Bachem Americas, Torrance, Calif.). Fluorescence was measured continuously at 37° C. for up to 40 min in a spectrofluorometer (355/460 nm excitation/emission). The rate of fluorescence intensity increase as a function of time (dF/dt) was calculated with Turbo Delphi 2006 (Borland Software Corporation, Austin, Tex.) and converted to thrombin-equivalent concentration (nM) using a calibration curve. The endogenous thrombin potential (ETP) of samples, i.e. total generated thrombin activity, was determined from the area under the TG curve. When specified, TG was measured with a discontinuous 2-stage assay with a detection limit of 5 pM. For this, TG was induced by 0.15 pM rTF and 18 mM CaCl2 in reconstituted FVII-deficient PRP including 30 μg/ml CTI with 400 pM WT FVIIa or iFVIIa without or with 20 pM FIXa. After incubation for up to 11 min at 37° C., reactions were terminated by adding 20 mM EDTA and generated thrombin was measured using the highly sensitive thrombin substrate H-D-CHA-Ala-Arg-AMC.2AcOH (Pefafluor TH, Pentapharm, Basel, Switzerland) at 50 μM concentration. In other experiments, TG was induced by TFiFVIIa-FXa-TFPI or TF-iFVIIa-FXa-NAPc2. These stable complexes were pre-formed by incubating 5 nM FXa, 10 nM TF, 10 nM iFVIIa and 40 nM TFPI or NAPc2 in the presence of 2.5 mM CaCl2 for 2 min at 37° C. Complexes were added into FVII-deficient PRP, followed by incubation for 8 min at 37° C.
PRP was prepared from blood collected into trisodium citrate (final concentration 0.0129 M) by centrifugation for at 250 g for 10 min at 25° C.; the platelet count was adjusted at 180.103 per μl by diluting with homologous platelet-poor plasma (PPP) obtained by centrifuging PRP for an additional 10 min at 1,500 g. When indicated, CTI was added at 30 to 50 μg/ml depending on calibrated potency measured by FXIIa inhibition. Reconstituted PRP was prepared by adding normal washed platelets into PPP (without or with CTI) lacking FVII, FVIII (both from George King Bio-Medical, Overland Park, Kans.) or FIX (Haematologic Technologies). […] generation in PRP was measured as described by Hemker et al. 53 μl of PRP was mixed in 96-well microtiter plates with 15 μl of a solution containing rTF and/or one of the intrinsic coagulation pathway proteases—FXIIa, FXIa or FIXa—to achieve the indicated final concentrations. Antibodies or inhibitors were also added at this point at the concentration indicated for each specific case. The reaction was started by adding between 15 and 20 μl of 100 mM CaCl2 and 2 mM fluorogenic substrate, benzyloxycarbonyl-glycyl-glycyl-L-arginine-7-amido-4-methylcoumarin (Gly-Gly-Arg-AMC; Bachem Americas, Torrance, Calif.).

Assay [2] has as its system thrombin generation (TG). Put plainly: TG in FVII-deficient reconstituted PRP with FVIIa WT or mutants. In kind it is biochemical, human. The settings on record: FVII-deficient plasma.
Experimental: (A) Phospholipid-free assay of FX (1 μM) to FXa conversion by the complex of 2 μM soluble rTF with 10 nM FVIIa WT, T99Y or E154A. (B) FXa generation by 50 pM phospholipid-reconstituted rTF with 200 pM FVIIa WT, T99Y or E154A added to 135 nM FX, 0.7 nM FVIII, 3 nM FV and 200 nM lepirudin (2 min, n=2-3; 4 min, n=4-5; 6 min, n=6-9). (C) WB (representing 2) of FVIII activation in reactions of 50 pM TF, 200 pM FVIIa WT or mutants, 0.7 nM FVIII, 3 nM FV and 200 nM lepirudin without/with 135 nM FX, incubated for 120 s at 37° C. […] (E) FXa generation measured in reactions as in (D) without TFPIα and in the presence of 10 nM FIXa (left, incubation 180 s; n=5-6 except=2 for E154A) or 90 nM FIX (right, incubation for 360 s; n=5-6). […] Differences were evaluated by the ANOVA/Tukey test; results at 4 and 6 min in (B) and in reactions with FIX in (E, right) were analyzed after transformation as y=log 10 y (**P<0.01, ***P<0.001).
Thrombin was quantified with a fluorogenic substrate for calculation of % inhibition. […] Endogenous thrombin potential (ETP, right) was calculated from the area under the TG curve (n=2). […] Differences were evaluated with the ANOVA/Tukey test (performed after log 10 transformation of the data shown in E); *P<0.05, ***P<0.001. […]
Assay [3] has as its target thrombin (Homo sapiens, UniProt P00734). As to conditions: 0.5 nM FIIa, 50 pM rTF, 180 s.
Experimental: FVIII activation by stable FXa complexes with TF-FVIIa was tested in reactions containing FVIII, FV and lepirudin with or without TFPIα, with incubation for 30-120 s at 37° C. […] The inhibitory effect of hirugen on FVIIIa generation by FIIa was tested in reactions with 0.5 nM FIIa incubated with 50 pM rTF and FVIII for 180 s at 37° C.
Assay [4] relates to FVIII. Put plainly: FVIII activation in rTF/FVIIa-initiated reactions with FX, prothrombin, FVIII, FV (immunoblot). As to conditions: thrombin blocked with 4 μM DAPA. Background: In western blotting, separated proteins are transferred to a membrane and probed.
Experimental: Quantification of generated FVIIIa-A1 calibrated with known quantities of the fragment. (B) FVIIIa activity calculated from FXa generation in reactions as in (A), but with 10 nM FIXa added and incubated for 180 s at 37° C. (n=4-12). FXa generation depend-ent on FVIIIa-FIXa activity was calculated by subtracting FXa generated by FVIIa and FIXa added individually from that by FVIIa/FIXa added together. (C) FVIIIa activity generated and calculated in reaction as in (A, B) but with the addition of 10 nM TFPIα. Results in A (bottom), B and C—shown as 25th-75th percentile bars, min-to-max whiskers, line at the median; or min-to-max floating bars with line at the mean when n≤3—were analyzed by ANOVA/Tukey tests. ***P<0.001; NS, not significant.
Reactions in 50 mM Tris-buffered saline, pH 7.4, with 0.1% bovine serum albumin included 0.7 nM FVIII, 3 nM FV, 135 nM FX and 1 μM prothrombin without/with 4 μM DAPA. TFPI and other inhibitors were added as indicated. […] After quenching the reaction with 10 mM EDTA, generated FXa was measured with S-2765 (180 μM). FVIIIa procoagulant activity was measured as FIXa-dependent FXa generation; FVIIIa procoagulant activity generated by the nascent TF-FVIIa-FXa complex was calculated by subtracting the amount of FXa produced in reactions initiated by FVIIa and FIXa individually from that produced in reactions initiated by FVIIa/FIXa combined. […]

In the case of 63-O-Sulfo-Tyr-hirudin [hirugen], in assay [1], the “effect on FIXa-dependent TG” value was “blocked” and the “effect on TG by FIXa combined with rTF” value is reported as “failed to inhibit”. Moreover, the “effect on FIXa-initiated TG” value in assay [2] is listed as “abolished”. In addition, the “effect on FVIII activation by thrombin” value in assay [3] is recorded as “dose-dependently inhibited”.
Turning to `CCC1CCN(C(=O)C(CCCN=C(N)N)NS(=O)(=O)c2cccc3c(N(C)C)cccc23)CC1` (centres unmarked) [DAPA, dansylarginine N-(3-ethyl-1,5-pentanediyl)amide], the FVIIIa still detectable in assay [4] is given as ~15%.
